Reference: patent publication US20250171423A1, “PHARMACEUTICAL COMPOUNDS FOR THE TREATMENT OF COMPLEMENT MEDIATED DISORDERS” (Achillion Pharmaceuticals, Inc., priority 2020, published 2025)
pIC50: −log10 of the molar value. Where a name gives a salt, the structure may show the parent alone.

target: T1, Human complement C1s enzyme (Homo sapiens, UniProt P09871); assay: Human C1s Enzyme Assay; format: biochemical; settings: human C1s 1.16 nM, 5 min preincubation, substrate Z-L-Lys-SBzl 100 μM, A405; read-out: C1s Protease Activity
T1 construct: purified from human serum, Complement Technology, Inc; purchased Complement Technology, Inc; host or cells: human serum
T1 sequence (P09871 438-688 limits assumed): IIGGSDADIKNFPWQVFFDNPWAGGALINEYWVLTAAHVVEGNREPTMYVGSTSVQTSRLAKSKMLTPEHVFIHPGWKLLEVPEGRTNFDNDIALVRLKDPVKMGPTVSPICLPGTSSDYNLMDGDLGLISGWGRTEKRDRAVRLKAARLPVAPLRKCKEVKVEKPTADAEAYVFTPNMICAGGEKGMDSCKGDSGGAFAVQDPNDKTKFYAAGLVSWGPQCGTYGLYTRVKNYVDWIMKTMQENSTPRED
T1 sequence (P09871 16-437 partner limits assumed): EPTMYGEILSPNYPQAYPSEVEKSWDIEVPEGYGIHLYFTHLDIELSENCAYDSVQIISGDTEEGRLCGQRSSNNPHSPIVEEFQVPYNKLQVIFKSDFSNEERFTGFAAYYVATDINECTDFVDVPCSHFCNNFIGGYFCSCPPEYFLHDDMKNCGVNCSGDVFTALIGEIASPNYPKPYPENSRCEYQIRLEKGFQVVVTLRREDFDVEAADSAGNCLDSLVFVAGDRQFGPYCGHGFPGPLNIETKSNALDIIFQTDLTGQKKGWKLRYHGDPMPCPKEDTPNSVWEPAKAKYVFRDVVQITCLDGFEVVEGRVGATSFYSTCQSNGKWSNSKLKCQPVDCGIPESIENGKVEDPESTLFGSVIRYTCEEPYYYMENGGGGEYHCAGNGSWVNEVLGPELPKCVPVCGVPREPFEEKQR
Procedure, shortened: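 IC50 values were fitted by nonlinear regression to rates measured as A405 every 30 s for 30 min. The thioester substrate Z-L-Lys-SBzl and Ellman's reagent were each at 100 μM. Serum-derived C1s at 1.16 nM final had 5 min of room-temperature preincubation with compound (pH 7.5 Tris buffer, 1 M NaCl).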

Compound | pIC50
COC[C@@]12C[C@@H]1N(C(=O)CNC(=O)c1ccc(Oc3ccccc3)cc1)[C@H](C(=O)NCc1cc(C(=N)N)cs1)C2 [Compound 20, (1S,3S,5R)-N-((4-carbamimidoylthiophen-2-yl)methyl)-5-(methoxymethyl)-2-((4-phenoxybenzoyl)glycyl)-2-azabicyclo[3.1.0]hexane-3-carboxamide] | > 7.00
C[C@@H](NC(=O)[C@@H]1C[C@H](C2CCCCC2)CN1C(=O)CNC(=O)c1ccc(Oc2ccccc2)cc1)c1cc(C(=N)N)cs1 [Compound 241, (2S,4R)-N-((R)-1-(4-carbamimidoylthiophen-2-yl)ethyl)-4-cyclohexyl-1-((4-phenoxybenzoyl)glycyl)pyrrolidine-2-carboxamide] | > 7.00
C[C@@]12C[C@@H]1N(C(=O)CNC(=O)c1ccc3c(c1)-c1ccccc1C3(F)F)[C@H](C(=O)NCc1cc(C(=N)N)cs1)C2 [Compound 103, (1S,3S,5S)-N-((4-carbamimidoylthiophen-2-yl)methyl)-2-((9,9-difluoro-9H-fluorene-3-carbonyl)glycyl)-5-methyl-2-azabicyclo[3.1.0]hexane-3-carboxamide] | > 7.00
C[C@@]12C[C@@H]1N(C(=O)CNC(=O)COCCOCCNC(=O)COCCOCCNC(=O)CC[C@H](NC(=O)CCCCCCCCCCCCCCCCC(=O)O)C(=O)O)[C@H](C(=O)NCc1cc(C(=N)N)cs1)C2 [Compound 100, 17-{[(1S)-3-{[2-(2-{[(2-{2-[({2-[(1S,3S,5S)-3-{[(4-carbamimidoylthiophen-2-yl)methyl]-carbamoyl}-5-methyl-2-azabicyclo[3.1.0]hexan-2-yl]-2-oxoethyl}carbamoyl)methoxy]ethoxy}ethyl)-carbamoyl]methoxy}ethoxy)ethyl]carbamoyl}-1-carboxypropyl]-carbamoyl}heptadecanoic acid] | < 6.00
C[S@](=N)(=O)[C@@H]1C[C@@H](C(=O)NCc2cc(C(=N)N)cs2)N(C(=O)CNC(=O)c2ccc(Oc3ccccc3)cc2)C1 [Compound 68, (2S,4R)-N-((4-carbamimidoylthiophen-2-yl)methyl)-4-((S)-S-methylsulfonimidoyl)-1-((4-phenoxybenzoyl)glycyl)pyrrolidine-2-carboxamide] | > 7.00
COC[C@@]1(F)C[C@@H](C(=O)N[C@H](C)c2cc(C(=N)N)cs2)N(C(=O)CNC(=O)c2ccc(C(=O)c3ccccc3)cc2)C1 [Compound 218, (2S,4R)-1-((4-benzoylbenzoyl)glycyl)-N-((R)-1-(4-carbamimidoylthiophen-2-yl)ethyl)-4-fluoro-4-(methoxymethyl)pyrrolidine-2-carboxamide] | > 7.00
C[C@H](O)[C@H](O)[C@@H](O)[C@@H](O)CNCC(=O)N1[C@H]2C[C@@]2(C)C[C@H]1C(=O)NCc1cc(C(=N)N)cs1 [Compound 24, (1S,3S,5S)-N-((4-carbamimidoylthiophen-2-yl)methyl)-5-methyl-2-(((2S,3S,4S,5S)-2,3,4,5-tetrahydroxyhexyl)glycyl)-2-azabicyclo[3.1.0]hexane-3-carboxamide hydrochloride] | < 6.00
C[C@@H](NC(=O)[C@@H]1C[C@@H](c2ccccc2)CN1C(=O)CNC(=O)c1ccc(Oc2ccccc2)cc1)c1cc(C(=N)N)cs1 [Compound 246, (2S,4S)-N-((R)-1-(4-carbamimidoylthiophen-2-yl)ethyl)-1-((4-phenoxybenzoyl)glycyl)-4-phenylpyrrolidine-2-carboxamide] | > 7.00
CC(=O)NCCOC[C@@]12C[C@@H]1N(C(=O)CNC(=O)c1ccc(Oc3ccccc3)cc1)[C@H](C(=O)N[C@H](C)c1cc(C(=N)N)cs1)C2 [Compound 141, (1S,3S,5R)-5-((2-acetamidoethoxy)methyl)-N-((R)-1-(4-carbamimidoylthiophen-2-yl)ethyl)-2-((4-phenoxybenzoyl)glycyl)-2-azabicyclo[3.1.0]hexane-3-carboxamide] | > 7.00
C[C@@]12C[C@@H]1N(C(=O)CNC(=O)c1ccc(Oc3ccccc3)cc1)[C@H](C(=O)NS(=O)(=O)c1cc(C(=N)N)cs1)C2 [Compound 86, (1S,3S,5S)-N-((4-carbamimidoylthiophen-2-yl)sulfonyl)-5-methyl-2-((4-phenoxy-benzoyl)glycyl)-2-azabicyclo[3.1.0]hexane-3-carboxamide] | < 6.00
C[C@@H](NC(=O)[C@@H]1C[C@]2(C)C[C@@H]2N1C(=O)CNC(=O)c1ccc(C(=O)c2ccccc2)cc1)c1cc(C(=N)N)cs1 [Compound 180, (1S,5S)-2-((4-benzoylbenzoyl)glycyl)-N-((R)-1-(4-carbamimidoylthiophen-2-yl)ethyl)-5-methyl-2-azabicyclo[3.1.0]hexane-3-carboxamide] | > 7.00
CN/C(=N/C#N)c1csc(CNC(=O)[C@@H]2C[C@]3(C)C[C@@H]3N2C(=O)CNC(=O)c2ccc(Oc3ccccc3)cc2)c1 [Compound 236, (1S,3S,5S)-N-((4-((E)-N′-cyano-N-methylcarbamimidoyl)thiophen-2-yl)methyl)-5-methyl-2-((4-phenoxybenzoyl)glycyl)-2-azabicyclo[3.1.0]hexane-3-carboxamide] | < 6.00
CCOC(=O)c1ccc(OCCCC(=O)NCC(=O)N2[C@H]3C[C@@]3(C)C[C@H]2C(=O)NCc2cc(C(=N)N)cs2)cc1 [Compound 79, Ethyl 4-(4-((2-((1S,3S,5S)-3-(((4-carbamimidoylthiophen-2-yl)methyl)carbamoyl)-5-methyl-2-azabicyclo[3.1.0]hexan-2-yl)-2-oxoethyl)amino)-4-oxobutoxy)benzoate] | > 7.00
C[C@@]12C[C@@H]1N(C(=O)CNC(=O)CCCOc1ccc(C(=O)O)cc1)[C@H](C(=O)NCc1cc(C(=N)N)cs1)C2 [Compound 80, 4-(4-((2-((1S,3S,5S)-3-(((4-carbamimidoylthiophen-2-yl)methyl)carbamoyl)-5-methyl-2-azabicyclo[3.1.0]hexan-2-yl)-2-oxoethyl)amino)-4-oxobutoxy)benzoic acid] | 6.00 to 7.00

Further lines, results first:

pIC50 | Compound
> 7.00 | CN(C)C[C@@]1(F)C[C@@H](C(=O)NCc2cc(C(=N)N)cs2)N(C(=O)CNC(=O)CCCOc2ccccc2)C1 [Compound 129, (2S,4S)-N-[(4-carbamimidoylthiophen-2-yl)methyl]-4-[(dimethylamino)methyl]-4-fluoro-1-[2-(4-phenoxybutanamido)acetyl]pyrrolidine-2-carboxamide]
> 7.00 | N=C(N)c1csc(CNC(=O)[C@@H]2C[C@](F)(CO)CN2C(=O)CNC(=O)CCCOc2ccccc2)c1 [Compound 66, (2S,4R)-N-((4-carbamimidoylthiophen-2-yl)methyl)-4-fluoro-4-(hydroxymethyl)-1-((4-phenoxybutanoyl)glycyl)pyrrolidine-2-carboxamide]
> 7.00 | COC[C@@]12C[C@@H]1N(C(=O)CNC(=O)CCCOc1ccccc1)[C@H](C(=O)NCc1cc(C(=N)N)cs1)C2 [Compound 63, (1S,3S,5R)-N-((4-carbamimidoylthiophen-2-yl)methyl)-5-(methoxymethyl)-2-((4-phenoxybutanoyl)glycyl)-2-azabicyclo[3.1.0]hexane-3-carboxamide]
> 7.00 | C[C@@H](NC(=O)[C@@H]1C[C@@H](c2ccccc2)CN1C(=O)CNC(=O)CCCOc1ccccc1)c1cc(C(=N)N)cs1 [Compound 158, (2S,4S)-N-((R)-1-(4-carbamimidoylthiophen-2-yl)ethyl)-1-((4-phenoxybutanoyl)glycyl)-4-phenylpyrrolidine-2-carboxamide]
> 7.00 | COC[C@H]1C[C@@H](C(=O)NCc2cc(C(=N)N)cs2)N(C(=O)CNC(=O)c2ccc(Oc3ccccc3)cc2)C1 [Compound 14, (2S,4S)-N-((4-carbamimidoylthiophen-2-yl)methyl)-4-(methoxymethyl)-1-((4-phenoxybenzoyl)glycyl)pyrrolidine-2-carboxamide hydrochloride]
> 7.00 | Cc1cccc([C@H]2C[C@@H](C(=O)NCc3cc(C(=N)N)cs3)N(C(=O)CNC(=O)CCCOc3ccccc3)C2)c1 [Compound 170, (2S,4R)-N-((4-carbamimidoylthiophen-2-yl)methyl)-1-((4-phenoxybutanoyl)glycyl)-4-(m-tolyl)pyrrolidine-2-carboxamide]
> 7.00 | Cc1cccc(O[C@@H]2C[C@@H](C(=O)N[C@H](C)c3cc(C(=N)N)cs3)N(C(=O)CNC(=O)CCCOc3ccccc3)C2)c1 [Compound 118, (2S,4R)-N-((R)-1-(4-carbamimidoylthiophen-2-yl)ethyl)-1-((4-phenoxybutanoyl)-glycyl)-4-(m-tolyloxy)pyrrolidine-2-carboxamide]
> 7.00 | C[C@@H](NC(=O)[C@@H]1C[C@@H](OC(F)F)CN1C(=O)CNC(=O)CCCOc1ccccc1)c1cc(C(=N)N)cs1 [Compound 123, (2S,4R)-N-((R)-1-(4-carbamimidoylthiophen-2-yl)ethyl)-4-(difluoromethoxy)-1-((4-phenoxybutanoyl)glycyl)pyrrolidine-2-carboxamide]
